Measurements from patent publication US20080076750A1, “Azetidinone Derivatives and Methods of Use Thereof” (priority 2006, published 2008).
Where two headings read alike, the source gives them in different places. Blank lines part the entries; values can stand above or below the compound they belong to.

How the values were obtained:
[1] = molecular target: T1, human NPC1L1 (Homo sapiens, UniProt Q9UHC9); assay: NPC1L1 Binding Assay, human; settings: HEK-293 cells expressing human NPC1L1; competition with 250 nM BODIPY-labeled glucuronidated ezetimibe, 4 h at 37° C.
T1 construct: expressed in transfected cells; host or cells: HEK-293 (geneticin selection)
T1 sequence (Q9UHC9 22-1359): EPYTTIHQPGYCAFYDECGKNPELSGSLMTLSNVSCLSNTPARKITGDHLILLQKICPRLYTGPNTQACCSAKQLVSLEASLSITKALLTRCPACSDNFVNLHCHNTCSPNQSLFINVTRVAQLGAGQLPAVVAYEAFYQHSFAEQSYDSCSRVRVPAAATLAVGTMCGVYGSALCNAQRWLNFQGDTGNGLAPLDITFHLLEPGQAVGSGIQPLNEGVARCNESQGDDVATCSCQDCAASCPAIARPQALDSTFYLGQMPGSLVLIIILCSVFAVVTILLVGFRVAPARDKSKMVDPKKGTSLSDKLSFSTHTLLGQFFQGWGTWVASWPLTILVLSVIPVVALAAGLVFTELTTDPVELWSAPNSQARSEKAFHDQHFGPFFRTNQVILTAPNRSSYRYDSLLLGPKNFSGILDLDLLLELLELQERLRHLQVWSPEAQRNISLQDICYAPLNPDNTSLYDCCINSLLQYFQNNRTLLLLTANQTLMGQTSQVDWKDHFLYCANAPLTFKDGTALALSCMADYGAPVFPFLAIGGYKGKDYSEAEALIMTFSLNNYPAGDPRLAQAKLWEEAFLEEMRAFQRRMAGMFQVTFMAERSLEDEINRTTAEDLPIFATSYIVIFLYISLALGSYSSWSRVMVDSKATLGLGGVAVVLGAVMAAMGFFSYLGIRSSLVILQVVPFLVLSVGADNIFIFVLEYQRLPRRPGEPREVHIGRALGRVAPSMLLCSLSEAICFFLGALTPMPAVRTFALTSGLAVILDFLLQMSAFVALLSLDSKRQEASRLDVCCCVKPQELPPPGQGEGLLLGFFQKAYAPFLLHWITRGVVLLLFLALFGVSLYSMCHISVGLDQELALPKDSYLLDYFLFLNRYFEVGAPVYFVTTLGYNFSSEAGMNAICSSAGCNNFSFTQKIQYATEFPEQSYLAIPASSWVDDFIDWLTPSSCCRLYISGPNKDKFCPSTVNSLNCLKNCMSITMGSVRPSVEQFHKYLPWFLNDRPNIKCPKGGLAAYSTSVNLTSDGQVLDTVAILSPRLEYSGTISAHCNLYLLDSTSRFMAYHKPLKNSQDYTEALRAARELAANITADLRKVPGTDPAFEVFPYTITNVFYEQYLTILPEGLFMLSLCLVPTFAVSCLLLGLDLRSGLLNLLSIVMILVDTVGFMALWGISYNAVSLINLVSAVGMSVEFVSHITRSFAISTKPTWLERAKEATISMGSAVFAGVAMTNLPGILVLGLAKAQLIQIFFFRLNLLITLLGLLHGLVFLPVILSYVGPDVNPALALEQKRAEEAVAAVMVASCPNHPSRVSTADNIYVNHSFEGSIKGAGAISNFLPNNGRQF
Experimental: HEK-293 cells expressing human NPC1L1 were plated into 384-well black/clear plates (BD Biosciences, Bedford Mass.) for binding experiments the following day. Cell growth media (DMEM, 10% fetal calf serum, 1 mg/mL geneticin, 100 Units/mL penicillin) was aspirated. Cell growth media ([…]) containing 250 nM BODIPY-labeled glucuronidated ezetimibe was added to each well. Cell growth media ([…] containing the indicated concentration of compound was then added to the wells unlabeled glucuronidated ezetimibe […]) was used to determine nonspecific binding. The binding reaction was allowed to proceed for 4 h at 37° C. Subsequently the cell growth media was aspired and the cells washed once with PBS. The remaining fluorescent labeled glucuronidated ezetimibe bound to the cells was quantified using a FlexStation plate reader (Molecular Devices, Sunnyvale Calif.) to measure fluorescence intensity. Ki values were determined from competition binding curves (n=4 for each point) using Prism and Activity Base software.

[2] = molecular target: T2, TRPV1 (Homo sapiens, UniProt Q8NER1); assay: TRPV1 Screening Assay (FLIPR); type: cell-based; settings: HEK293-TetOFF-TRPV1, PMA, read-out: VR1 flipr PMA IC50
T2 construct: expressed in transfected cells; host or cells: HEK293-Tet-OFF
T2 sequence (Q8NER1 whole entry, species assumed): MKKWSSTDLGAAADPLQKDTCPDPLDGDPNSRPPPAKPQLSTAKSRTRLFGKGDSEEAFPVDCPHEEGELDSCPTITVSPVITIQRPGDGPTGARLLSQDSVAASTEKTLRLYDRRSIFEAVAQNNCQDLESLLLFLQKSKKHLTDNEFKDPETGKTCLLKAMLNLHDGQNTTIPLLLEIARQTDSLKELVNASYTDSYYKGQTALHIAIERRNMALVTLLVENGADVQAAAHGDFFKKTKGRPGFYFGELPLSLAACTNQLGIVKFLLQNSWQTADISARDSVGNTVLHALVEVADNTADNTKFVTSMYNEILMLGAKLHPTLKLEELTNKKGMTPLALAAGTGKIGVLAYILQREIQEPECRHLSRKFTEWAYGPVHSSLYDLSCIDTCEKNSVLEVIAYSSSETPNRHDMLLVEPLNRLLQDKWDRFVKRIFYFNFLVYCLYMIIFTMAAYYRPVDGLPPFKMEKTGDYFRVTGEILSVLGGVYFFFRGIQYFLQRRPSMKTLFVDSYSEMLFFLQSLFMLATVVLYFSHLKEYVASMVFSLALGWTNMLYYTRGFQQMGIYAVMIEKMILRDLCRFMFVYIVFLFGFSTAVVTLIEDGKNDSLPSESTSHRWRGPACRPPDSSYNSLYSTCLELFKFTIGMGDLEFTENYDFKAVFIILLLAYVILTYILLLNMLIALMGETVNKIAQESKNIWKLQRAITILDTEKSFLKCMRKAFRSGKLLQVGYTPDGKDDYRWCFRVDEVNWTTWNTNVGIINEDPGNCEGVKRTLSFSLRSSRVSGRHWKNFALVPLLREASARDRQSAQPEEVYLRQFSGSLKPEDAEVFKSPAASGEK

[3] = molecular target: T2, TRPV1; assay: TRPV1 Screening Assay (FLIPR); type: cell-based; settings: HEK293-TetOFF-TRPV1, capsaicin (50 nM final), read-out: VR1 flipr CAPSAICIN IC50
Text: • 1) Cell line: HEK293-Tet^OFF-TRPV1 • 2) Media: MEM (Invitrogen) • 3) 10% Tet-FBS (Clontech #8630-1) • 4) Fungizone (Gibco #15290-018 (100×)) • 5) Penn/Strep (Gibco #15140-122 (100×)) • 6) Geneticin (Gibco #10131-027 (100×)) • 7) Hygromycin (Clontech #8057-1) • 8) Doxycycline (Clontech #8634-1) • 9) Trypsin/EDTA (Gibco #25200-056) • 10) 100 mm cell culture plates (Falcon #3003) • 11) 96-well poly-D-lysine plates (Fisher #08-774-256) • 12) Hank's Balanced Salt Solution (HBSS) (GIBCO #14025-092) • 13) HEPES Buffer (GIBCO #15630-080) • 14) 30% BSA (Research Organics #1334A) • 15) Probenecid (Sigma P-8761) • 16) Fluo-4, AM (50 μg) (Molecular robes F-23917) • 17) Pluronic F-127 20% (Molecular Probes P-3000). • 18) capsazepine (Sigma C-191) • 19) capsaicin (Sigma M-2028) • 20) compound plates (NUNC #442587) • 21) black pipet tips 96-well FLIPR (Robbins Scientific 1043-24-0) • 22) Additional reagents available from Fisher: methanol, DMSO, NaOH Reagent Preparation: 1) Cells: HEK293-Tet^OFF-TRPV11
• and Doxycycline 2.5 μg/mL final (from a 1000× stock in PBS) • Cells must be fed and/or split every 2-3 days (to maintain transcriptional repression with Doxycycline). • Must be split no more than 1:5 (50-75% confluency) to maintain growth and viability. • Grown on regular tissue culture plates (e.g. Falcon 3003-100 mm) • SpliT-cells via Trypsin/EDTA: incubate with trypsin at room temperature no longer than 5 min (HEK293 cells have a tendency to ball up if over trypsinized). • Two days prior to assay, the cells are split into 96-well plates in cell media in the absence of doxycycline at a concentration of 40,000 cells/well in a volume of 200 μL, 2) FLIPR buffer is prepared fresh:
Add 5 mL of Probenecid Solution, prepared as follows: 710 mg of probenecid (Sigma P-8761) is solubilized in 5 mL of 1 N NaOH, 5 mL of above buffer s added for final volume of 10 mL (of which 5 mL goes back into FLIPR buffer)
Combine 42 μL of dye mixture with 11 mL of FLIPR buffer/96-well plate.
Stock solution of 0.1 M capsaicin is prepared in MeOH (50 mg+1.6 mL MeOH). Store 50 μL aliquots at −80° C.
For assay: • a) Dilute stock by adding 0.8 μL into 1 mL of MeOH (final=80 μM). • b) Add 50 μL of diluted stock to 20 mL of FLIPR buffer (final=0.2 μM) • c) Agonist solution is added 150 μL/well to 96-well plate. • d) Final agonist concentration on cells will be 50 nM. […] Laser is adjusted upwards for an average signal≧10,000/well and less than 10% variability. 7) Compound addition conditions are as follows: • FLIPR setup (dual sequence parameters): • Sequence 1: • First interval 1 sec/60 counts • Second interval 6 sec/50 counts • Fluid addition=50 μL • Pipettor=110 μL • Dispense Speed=30 μL/sec • Sequence 2: • Second interval 1 sec/60 counts • Second interval 6 sec/40 counts • Fluid addition=50 μL • Pipettor height=140 μL • Dispense Speed=50 μL/sec Data Analysis:
1) Data from both additions is reported as Max-Min for each well

[4] = molecular target: T3, human Cav3.2 (Homo sapiens, UniProt O95180); assay: IonWorks Screen for hCaV3.2; type: cell-based; settings: IonWorks HT, HEK cells expressing human Cav3.2, 10 minutes incubation, pulse 10; read-out: IW hCav3.2 IC50
T3 construct: expressed in transfected cells
T3 sequence (O95180 whole entry): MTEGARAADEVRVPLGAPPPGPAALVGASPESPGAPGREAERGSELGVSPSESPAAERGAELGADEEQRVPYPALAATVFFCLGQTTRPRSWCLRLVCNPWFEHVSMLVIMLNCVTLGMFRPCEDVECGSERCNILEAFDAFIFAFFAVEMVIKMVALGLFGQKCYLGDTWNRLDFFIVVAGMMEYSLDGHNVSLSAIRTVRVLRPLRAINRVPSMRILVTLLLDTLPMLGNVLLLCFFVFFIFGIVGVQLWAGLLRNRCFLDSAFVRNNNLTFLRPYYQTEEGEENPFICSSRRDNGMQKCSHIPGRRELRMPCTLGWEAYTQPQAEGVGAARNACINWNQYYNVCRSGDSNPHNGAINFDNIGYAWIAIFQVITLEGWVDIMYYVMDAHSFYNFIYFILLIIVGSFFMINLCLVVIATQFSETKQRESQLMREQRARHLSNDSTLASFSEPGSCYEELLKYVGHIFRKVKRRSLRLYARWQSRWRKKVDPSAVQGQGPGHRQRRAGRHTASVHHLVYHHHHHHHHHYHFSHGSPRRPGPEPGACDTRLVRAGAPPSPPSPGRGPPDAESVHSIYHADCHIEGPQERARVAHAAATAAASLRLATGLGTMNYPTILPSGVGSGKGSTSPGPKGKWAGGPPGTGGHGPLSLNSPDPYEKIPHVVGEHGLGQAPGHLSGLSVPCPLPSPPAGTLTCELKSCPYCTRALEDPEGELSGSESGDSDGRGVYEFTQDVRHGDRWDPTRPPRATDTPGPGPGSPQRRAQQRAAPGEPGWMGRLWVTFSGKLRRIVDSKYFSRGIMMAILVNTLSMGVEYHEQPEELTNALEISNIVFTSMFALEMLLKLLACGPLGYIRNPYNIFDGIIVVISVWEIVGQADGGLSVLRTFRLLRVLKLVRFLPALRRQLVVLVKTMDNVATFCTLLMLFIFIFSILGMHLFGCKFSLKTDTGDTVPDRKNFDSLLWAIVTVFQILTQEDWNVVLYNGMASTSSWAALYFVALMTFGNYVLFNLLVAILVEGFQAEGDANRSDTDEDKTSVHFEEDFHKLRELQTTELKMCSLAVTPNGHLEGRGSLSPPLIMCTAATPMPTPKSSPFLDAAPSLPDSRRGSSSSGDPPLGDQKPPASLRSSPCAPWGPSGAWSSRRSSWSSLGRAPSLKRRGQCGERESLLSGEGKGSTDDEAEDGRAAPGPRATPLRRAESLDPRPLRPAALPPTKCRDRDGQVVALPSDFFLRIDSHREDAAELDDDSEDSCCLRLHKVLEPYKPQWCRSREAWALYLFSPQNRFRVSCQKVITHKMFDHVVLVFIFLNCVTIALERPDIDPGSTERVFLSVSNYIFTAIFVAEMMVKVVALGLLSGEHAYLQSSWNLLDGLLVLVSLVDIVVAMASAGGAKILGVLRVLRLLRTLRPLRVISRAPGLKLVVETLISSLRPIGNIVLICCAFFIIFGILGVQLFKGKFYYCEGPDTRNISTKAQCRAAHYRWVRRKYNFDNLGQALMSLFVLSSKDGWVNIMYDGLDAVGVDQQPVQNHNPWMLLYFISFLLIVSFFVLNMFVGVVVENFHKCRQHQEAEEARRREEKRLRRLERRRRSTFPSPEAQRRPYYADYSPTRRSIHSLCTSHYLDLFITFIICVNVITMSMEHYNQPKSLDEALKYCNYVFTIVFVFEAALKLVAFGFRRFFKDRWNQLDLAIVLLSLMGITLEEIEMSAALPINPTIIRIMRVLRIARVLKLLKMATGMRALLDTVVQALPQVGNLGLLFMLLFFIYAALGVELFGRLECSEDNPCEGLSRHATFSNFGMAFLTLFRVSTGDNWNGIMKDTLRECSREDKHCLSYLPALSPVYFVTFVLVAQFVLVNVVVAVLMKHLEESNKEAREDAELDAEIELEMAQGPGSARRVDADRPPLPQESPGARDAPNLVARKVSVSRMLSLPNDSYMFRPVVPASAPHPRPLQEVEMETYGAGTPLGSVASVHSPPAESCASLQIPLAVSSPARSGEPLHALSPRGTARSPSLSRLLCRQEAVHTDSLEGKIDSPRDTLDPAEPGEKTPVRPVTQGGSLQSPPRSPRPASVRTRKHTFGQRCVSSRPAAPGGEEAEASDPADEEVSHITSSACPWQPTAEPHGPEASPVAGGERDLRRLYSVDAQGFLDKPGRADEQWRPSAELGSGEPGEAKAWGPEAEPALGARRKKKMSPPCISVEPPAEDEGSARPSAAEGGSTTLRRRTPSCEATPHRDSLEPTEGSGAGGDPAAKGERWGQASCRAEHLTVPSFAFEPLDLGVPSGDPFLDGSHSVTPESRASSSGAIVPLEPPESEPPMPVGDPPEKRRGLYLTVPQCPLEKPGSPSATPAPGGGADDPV
Text: Functional evaluation of voltage-gated ion channels can be used to determine potency and/or single concentration efficacy of the Azetidinone Derivatives. Two different methodologies can be used to measure ion currents: the Ionworks HT (Molecular Devices, Sunnyvale, Calif.) a moderate throughput voltage clamp screening platform that utilizes 96-well compound plates and conventional whole cell patch clamp for lower throughput, higher fidelity determinations.
HEK cells are transiently transfected and then selected for stable heterologous expression of different channel proteins of interest. Calcium channel cell lines expressed a resting potassium current, human Kir2.1, and the pore forming α-subunit of voltage-gated calcium channels. In the case of Cav2.1 cells the auxiliary subunit, β2α, is also expressed. Calcium channel lines that are used to generate the data will express either human Cav3.2, rat Cav3.2 or human Cav2.1. The human heart sodium channel, hNav1.5, are stably expressed in CHO cells.
Cell lines can be grown at 37° C. in humidified incubators, equilibrated with 95% air/5% CO2. CHO cells can be grown in Ham's F-12 medium. HEK cells can be grown in DMEM. All media are supplemented with 10% heat-inactivated fetal bovine serum, penicillin, streptomycin and appropriate selection antibiotics (zeocin, geneticin and/or hygromycin). Cells are passaged when 80% confluent or less.
IonWorks Screen for hCaV3.2
The extracellular buffer for experiments using this instrument contained the following (mM) (NaCl 125, HEPES 10, KCl 5.4, CaCl2 1.8, MgCl2 1.8, 0.2 BaCl2 pH 7.35). The IonWorks uses amphotericin to gain electrical access to the cell interior. The internal solution contained (mM concentrations): 130 K-gluconate, 20 KCl, 5 HEPES-KOH (pH 7.25), 2 CaCl2, 1 MgCl2. Amphotericin added at 5 mg in 65 mL when present (in 650 μL DMSO). All internal and external solutions for this experiment contain 1% DMSO. Cells were acutely trypsinized from a T-75 flask and resuspended in extracellular buffer at a density of 2×10^5 cells/mL.
Experiments were performed at room temperature. Transmembrane potential was held at −100 mV for 5 seconds prior to running the voltage protocol. During this time leak currents were measured during a step to −110 mV (200 milliseconds), T-type calcium currents were activated with a 250 millisecond step to −20 mV. This depolarization step was repeated for a total of 10 pulses with an interpulse interval of 1 second. Data were excluded if the following acceptance criteria were not met: total resistance for the pre-compound scan>65 MΩ, pre-compound current>250 pA, post compound total resistance>50 MΩ.
T-type currents were measured as the peak inward current minus the current at the end of the 250 msec step to −20 mV. After the recoding configuration was established there was a pre-compound measurement of current amplitude. Compound was added as a 3× solution containing 1% DMSO. After incubation with compound for 10 minutes currents were measured again. The current amplitude after compound addition was divided by the pre-compound current for pulse 10 to determine the fraction of current remaining after compound addition. For each compound, 8-point concentration-effect relationships were measured with ½ log serial dilutions.

SMILES: CC(C)c1ccc(NC(=O)N2CCC3(CC2)C(=O)N(c2ccccc2)C3c2ccccc2)cc1 (centres unmarked) [drawing 426]
IC50 [2]: 43 nM
IC50 [3]: 81 nM

SMILES: CC(C)c1ccc(NC(=O)N2CCC3(CC2)C(=O)N(c2ccccc2)C3c2ccccn2)cc1 (centres unmarked)
IC50 [2]: 81 nM
IC50 [3]: 70 nM

SMILES: O=C(Nc1ccccc1)N1CCC2(CC1)C(=O)N(c1cccc(Cl)c1)C2c1ccccn1 (centres unmarked)
IC50 [4]: 240 nM

SMILES: O=C(Nc1ccc(F)c(F)c1)N1CCC2(CC1)C(=O)N(c1cccc(Cl)c1)C2c1ccccn1 (centres unmarked)
IC50 [4]: 117 nM

SMILES: O=C(Nc1ccc(F)c(F)c1)N1CCC2(CC1)C(=O)N(c1ccc(F)cc1)C2c1ccccn1 (centres unmarked)
IC50 [4]: 490 nM

SMILES: O=C(Nc1ccc(C(F)(F)F)cc1)N1CCC2(CC1)C(=O)N(c1ccccc1)C2c1ccccc1 (centres unmarked)
IC50 [3]: 171 nM

SMILES: O=C(Nc1cccc2ccccc12)N1CCC2(CC1)C(=O)N(c1ccccc1)C2c1ccccc1 (centres unmarked)
Ki [1]: 2.49 µM

SMILES: O=C(Nc1cc(F)cc(F)c1)N1CCC2(CC1)C(=O)N(c1ccc(F)cc1)C2c1ccc(Cl)cc1 (centres unmarked)
IC50 [4]: 504 nM

SMILES: Cc1cccc(C)c1NC(=O)N1CCC2(CC1)C(=O)N(c1ccccc1)C2c1ccccc1 (centres unmarked)
Ki [1]: 8.19 µM

The next lines start with the values.

Ki [1]: 6.36 µM
SMILES: COc1ccc(Cl)cc1NC(=O)N1CCC2(CC1)C(=O)N(c1ccccc1)C2c1ccccc1 (centres unmarked)

IC50 [2]: 33 nM
IC50 [3]: 33 nM
SMILES: O=C(Nc1ccc(C(F)(F)F)cc1)N1CCC2(CC1)C(=O)N(c1ccccc1)C2c1ccccn1 (centres unmarked)

IC50 [4]: 293 nM
SMILES: O=C(Nc1ccc(F)c(F)c1)N1CCC2(CC1)C(=O)N(c1ccc(F)cc1)C2c1ccc(Cl)cc1 (centres unmarked)

IC50 [4]: 212 nM
SMILES: CC(C)N1C(=O)C2(CCN(C(=O)Nc3cc(Cl)cc(Cl)c3)CC2)C1c1ccc(Cl)cc1 (centres unmarked)

IC50 [4]: 304 nM
SMILES: CC(C)N1C(=O)C2(CCN(C(=O)Nc3ccc(F)c(F)c3)CC2)C1c1ccc(Cl)cc1 (centres unmarked)

IC50 [2]: 99 nM
IC50 [3]: 138 nM
SMILES: CC(C)c1ccc(NC(=O)N2CCC3(CC2)C(=O)N(c2ccccc2)C3c2ccccc2)cc1 (centres unmarked) [drawing 427]

IC50 [4]: 423 nM
SMILES: CC(C)N1C(=O)C2(CCN(C(=O)Nc3ccc(Cl)cc3)CC2)C1c1ccc(Cl)cc1 (centres unmarked)

IC50 [4]: 359 nM
SMILES: O=C(Nc1ccc(F)c(F)c1)N1CCC2(CC1)C(=O)N(c1ccccc1)C2c1ccc(Cl)cc1 (centres unmarked)

IC50 [4]: 192 nM
SMILES: Cc1c(Cl)cccc1NC(=O)N1CCC2(CC1)C(=O)N(c1ccccc1)C2c1ccccc1 (centres unmarked) [drawing 414]

Ki [1]: 8.13 µM
SMILES: O=C(Nc1ccccc1C(F)(F)F)N1CCC2(CC1)C(=O)N(c1ccccc1)C2c1ccccc1 (centres unmarked)
